How the values were obtained:
Conditions in all cases: incubation time: 72 h
BT-474 [1] = test: normalised response (% of control), CellTox Green; higher = less cell death (100 = DMSO, 0 = benzethonium chloride kill control)
Outline: (§1)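 For each plate, 0.1 % DMSO was set to 100 and a positive kill control to 0. Breast cancer cell lines (20 µl suspension) were seeded into 384-well plates already holding compound at 5 concentrations in 10-fold steps over a 10,000-fold range chosen per compound, and incubated for 72 h. CellTox Green fluorescence at 485/520 nm was read before CellTiter-Glo luminescence, which followed 10 min at room temperature. Each value is the normalised signal at one concentration.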

BT-549 [2] = test: as above
Outline: as §1

CAL-120 [3] = test: as above
Outline: as §1

CAL-148 [4] = test: as above
Outline: as §1

CAL-51 [5] = test: as above
Outline: as §1

CAL-85-1 [6] = test: as above
Outline: as §1

DU-4475 [7] = test: as above
Outline: as §1

HCC1143 [8] = test: as above
Outline: as §1

HCC1599 [9] = test: as above
Outline: as §1

HCC1937 [10] = test: as above
Outline: as §1

HDQ-P1 [11] = test: as above
Outline: as §1

Hs578T [12] = test: as above
Outline: as §1

MCF-10A [13] = test: as above
Outline: as §1

MDA-MB-231 [14] = test: as above
Outline: as §1

MDA-MB-436 [15] = test: as above
Outline: as §1

MDA-MB-453 [16] = test: as above
Outline: as §1

MDA-MB-468 [17] = test: as above
Outline: as §1

MFM-223 [18] = test: as above
Outline: as §1

BT-474 [19] = test: normalised response (% of control), CellTiter-Glo; higher = more viable cells (100 = DMSO, 0 = benzethonium chloride kill control)
Experimental: (§2)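 DSRT, 72 h incubation, CellTox Green / CellTiter-Glo readout. Signal is normalised to DMSO and benzethonium chloride controls. Value is the normalised response at dose 3.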

BT-549 [20] = test: as above
Experimental: as §2

CAL-120 [21] = test: as above
Experimental: as §2

CAL-148 [22] = test: as above
Experimental: as §2

CAL-51 [23] = test: as above
Experimental: as §2

CAL-85-1 [24] = test: as above
Experimental: as §2

DU-4475 [25] = test: as above
Experimental: as §2

HCC1143 [26] = test: as above
Experimental: as §2

HCC1599 [27] = test: as above
Experimental: as §2

HCC1937 [28] = test: as above
Experimental: as §2

HDQ-P1 [29] = test: as above
Experimental: as §2

Hs578T [30] = test: as above
Experimental: as §2

MCF-10A [31] = test: as above
Experimental: as §2

MDA-MB-231 [32] = test: as above
Experimental: as §2

MDA-MB-436 [33] = test: as above
Experimental: as §2

MDA-MB-453 [34] = test: as above
Experimental: as §2

MDA-MB-468 [35] = test: as above
Experimental: as §2

MFM-223 [36] = test: as above
Experimental: as §2

SK-BR-3 = test: as above
Experimental: as §2

| SMILES | normalised response (BT-474 [1]) [%] | normalised response (BT-549 [2]) [%] | normalised response (CAL-120 [3]) [%] | normalised response (CAL-148 [4]) [%] | normalised response (CAL-51 [5]) [%] | normalised response (CAL-85-1 [6]) [%] | normalised response (DU-4475 [7]) [%] | normalised response (HCC1143 [8]) [%] | normalised response (HCC1599 [9]) [%] | normalised response (HCC1937 [10]) [%] | normalised response (HDQ-P1 [11]) [%] | normalised response (Hs578T [12]) [%] | normalised response (MCF-10A [13]) [%] | normalised response (MDA-MB-231 [14]) [%] | normalised response (MDA-MB-436 [15]) [%] | normalised response (MDA-MB-453 [16]) [%] | normalised response (MDA-MB-468 [17]) [%] | normalised response (MFM-223 [18]) [%] | normalised response (BT-474 [19]) [%] | normalised response (BT-549 [20]) [%] | normalised response (CAL-120 [21]) [%] | normalised response (CAL-148 [22]) [%] | normalised response (CAL-51 [23]) [%] | normalised response (CAL-85-1 [24]) [%] | normalised response (DU-4475 [25]) [%] | normalised response (HCC1143 [26]) [%] | normalised response (HCC1599 [27]) [%] | normalised response (HCC1937 [28]) [%] | normalised response (HDQ-P1 [29]) [%] | normalised response (Hs578T [30]) [%] | normalised response (MCF-10A [31]) [%] | normalised response (MDA-MB-231 [32]) [%] | normalised response (MDA-MB-436 [33]) [%] | normalised response (MDA-MB-453 [34]) [%] | normalised response (MDA-MB-468 [35]) [%] | normalised response (MFM-223 [36]) [%] | normalised response (SK-BR-3) [%] |
| --- | --- | --- | --- | --- | --- | --- | --- | --- | --- | --- | --- | --- | --- | --- | --- | --- | --- | --- | --- | --- | --- | --- | --- | --- | --- | --- | --- | --- | --- | --- | --- | --- | --- | --- | --- | --- | --- |
| COc1ccc(-c2ccc3c(N4CCOC[C@@H]4C)nc(N4CCOC[C@@H]4C)nc3n2)cc1CO [AZD8055] (100 nM) | 96.5 | 103 | 98.2 | 79.2 | 82.3 | 104 | 94.9 | 80.1 | 87.7 | 97.7 | 109 | 93.9 | 84.6 | 94.6 | 97.7 | 85.5 | 13.6 | 67 | 72 | 40.2 | 41.5 | 49.5 | 35.7 | 41.1 | 80.1 | 45.1 | 93 | 66.9 | 51.3 | 49.7 | 50.4 | 62.3 | 51.5 | 42.1 | 47.3 | 36.9 | 27.5 |
| C[C@]12CC[C@H](O)CC1=CC[C@@H]1[C@@H]2CC[C@]2(C)C(c3cccnc3)=CC[C@@H]12 [Abiraterone] (50 nM) | 100 | 96.5 | 101 | 106 | 105 | 95 | 101 | 109 | 110 | 116 | 111 | 107 | 63.7 | 58 | 96.5 | 104 | 128 | 108 | 104 | 101 | 106 | 108 | 81.5 | 105 | 107 | 104 | 124 | 95.1 | 100 | 104 | 99.8 | 103 | 99.7 | 99.7 | 101 | 105 | 103 |
| CC(C)c1c(C(=O)Nc2ccccc2)c(-c2ccccc2)c(-c2ccc(F)cc2)n1CC[C@@H](O)C[C@@H](O)CC(=O)O [Atorvastatin] (100 nM) | 103 | 98.1 | 98.4 | 80.9 | 109 | 94.1 | 103 | 109 | 88.1 | 81.6 | 86.4 | 93.4 |  | 105 | 109 | 99.2 | 120 | 98 | 94.8 | 94 | 103 | 108 | 103 | 103 | 98.6 | 103 | 105 | 102 | 98 | 102 | 98.4 | 97.5 | 91.5 | 111 | 93.8 | 98.9 | 98.9 |
| CO[C@H]1C[C@@H]2CC[C@@H](C)[C@@](O)(O2)C(=O)C(=O)N2CCCC[C@H]2C(=O)O[C@H]([C@H](C)C[C@@H]2CC[C@@H](OCCO)[C@H](OC)C2)CC(=O)[C@H](C)/C=C(\C)[C@@H](O)[C@@H](OC)C(=O)[C@H](C)C[C@H](C)/C=C/C=C/C=C/1C [Everolimus] (1 nM) | 96.7 | 79.8 | 106 | 85.8 | 94.4 | 109 | 96.3 | 79.1 | 89.6 | 99.9 | 83.1 | 67.1 | 80 | 105 | 98.3 | 103 | 121 | 102 | 91.9 | 63.6 | 77.8 | 72 | 72.1 | 69.3 | 83 | 72.4 | 98.2 | 75.2 | 91.9 | 70.6 | 91.6 | 82.9 | 83.7 | 82.7 | 57.1 | 71.6 | 65.9 |
